Results published in patent publication US6723703B2, “Therapeutic use of aerosolized S-nitrosoglutathione in cystic fibrosis” (Duke University, priority 2000, dated 2004).
Entries after “also recorded” stand apart in the source; their conditions may differ.

Experiments:
patients with CF = test: Double-blind, placebo-controlled nebulized GSNO study in patients with CF; format: in vivo, human
Method: FIG. 3. […] In a double-blind, placebo-controlled study, patients with CF received GSNO in 10 mM phosphate buffered saline (PBS) (n=9) or 10 mM PBS alone (n=11) by nebulizer. The two groups were matched with respect to age, vital signs, oxygen saturation, vital capacity, FEV1, and FEF25-75(p=7). Change in oxygen saturation from pretreatment baseline is recorded as a function of time. Results are shown in FIG. 3 where the continuous line represents the GSNO group and the line composed of dashes represents the PBS alone group. […] FIG. 4. Inhaled S-nitrosoglutathione cases increased expired nitric oxide (NO) concentration in CF. Data presented represent the two groups described in FIG. 3, but with respect to expired nitric oxide concentration (measured off-line with chemiluminescence in accordance with American Thoracic Society guidelines). Results are shown in FIG. 4 where the continuous line represents the GSNO group and the line composed of dashes represents the PBS alone group. […] Note that the change at 30 minutes is less pronounced than at 5 minutes, though improvement in oxygenation is as dramatic at 30 minutes as at 5 minutes. […] These S-nitrosylation reactions may be critically important to smooth muscle relaxation, antimicrobial effects and modification of ion channel function. FIGS. 5A, 5B, 5C, 5D, 5E and 5F. Inhaled S-nitrosoglutathione is well tolerated in CF patients.

[1] = system: human CFTR protein bearing the ΔF508 mutation; test: Western blot of CFTR in CFPAC-1 cells treated with GSNO; format: cell-based
Method: FIG. 1. […] Human pancreatic adenocarcinoma cells from a patient homozygous for ΔF508 (CFPAC-1) were grown to confluence and treated with medium alone (control) or 500 nM, 1 μM, 5 μM, 10 μM or 100 mM GSNO for 6 hours. The cells were harvested, lysed, resuspended in NP40 buffer and underwent Western Blot analysis with anti-CFTR antibody. […] Increased expression of the immature non-glycosylated protein (140 kDa) reflects decreased degradation of the immature protein in the endoplasma retimulum The appearance of a band at 180 kDa (mature protein) reflects maturation of the protein in the endoplasmic reticulum, an expression of a form capable of being expressed on the cell surface representative of three experiments. The full maturing of the protein accommodates for the ΔF508 mutation.

[2] = cited from earlier work
[3] = system: ubiquitin proteosome pathway; test: Inhibition of the ubiquitin proteosome pathway (preliminary evidence); conditions: stabilizes expression of hypoxy inducible factor 1
From the text: Cystic fibrosis is caused by mutations in a membrane-associated chloride channel, the cystic fibrosis transmembrane regulatory protein (CFTR). The most common mutation, accounting for 70% of alleles, is a 3 base pair (single amino acid) deletion at the 508 position on the first ATP binding domain, the (ΔF508) mutation. This is referred to as a class II mutation in that intact and potentially functional protein is degraded in the endoplasm reticulum because of a small folding error. It is known that his degradation can be bypassed in vitro by hypothermia and by treatment with compounds,such as glycerol and phenylbutyrate. These treatments result in functional expression of (ΔF508) CFTR on the cell surface. It has recently been proposed that CFTR degradation in the endoplasmic reticulum (ER) is mediated by the ubiquitin-proteasome system.

[4] = system: human airway smooth muscle preparations; conditions: read-out: IC50 in relaxing human airway smooth muscle preparations; cited from earlier work
[5] = cells homozygous to the ΔF508 mutation, 100 μM GSNO

Question: With `N[C@@H](CCC(=O)N[C@@H](CSN=O)C(=O)NCC(=O)O)C(=O)O` [GSNO, S-nitrosoglutathione] as the molecule, how does the “tolerability (vital signs, lung function, systemic effects)” value (patients with CF; CF patients, inhaled 0.05 ml/kg of 10 mM GSNO) read?
Answer: no acute change in vital signs or lung function was observed; also recorded: well tolerated in CF and has no adverse systemic affects

Question: What about the “change in oxygen saturation from pretreatment baseline” value (patients with CF; inhalation of 0.05 ml/kg of 10 mM GSNO by nebulizer vs PBS alone, p<0.001 by ANOVA) of the same molecule?
Answer: greater improvement in oxygen saturation than those in the PBS group; also recorded: improved oxygenation

Question: And the “stabilization and maturation of ΔF508 CFTR protein (Western blot, 140/160/180 kDa bands)” value ([1]; CFPAC-1 cells, 500 nM, 1 μM, 5 μM, 10 μM or 100 mM GSNO for 6 hours)?
Answer: stabilizes and allows maturation of human CFTR protein bearing the ΔF508 mutation

Question: And the “expression of CFTR” value [1, 5]?
Answer: increases the expression of CFTR

Question: What about the “maturation of CFTR” value [1, 5] of the same molecule?
Answer: increases the maturation of CFTR

Question: And the “stability at acid pH” value [2]?
Answer: stable at acid pH

Question: What about the “inhibition of ubiquitin proteosome pathway” value [3] of the same molecule?
Answer: inhibits the ubiquitin proteosome pathway

Question: And the IC50 [4]?
Answer: ~10 µM
